Where a name gives a salt, the structure may show the parent alone. Read-outs that look alike come from different tables or passages of the source.
Experiments:
[1] = target: native rat brain NR2B receptors (Rattus norvegicus (Rat), UniProt P35439+Q00960); assay: NR2B radioligand binding assay in rat brain using [3H] (E)-N1-(2-methoxybenzyl)-cinnamidine
Protocol: This example describes an NR2B receptor binding assay in rat brain using [^3H] […] The binding assay method was adapted from a previously described cellular human NR1a/NR2B cloned receptor assay (Kiss et al. Neurochem. Internatl. 2005, 46:453-464) to rat brain tissue. This assay serves as a selective measure of NR2B receptor binding activity in native rat brain receptors. Briefly, the brains of male Wistar rats were homogenized (Polytron) before centrifugation at 40,000×g for 15 minutes at 4° C. After 2 washes, the final pellet was homogenized and stored at −80° C. The protein concentration was determined by Bradford assay. [^3H] […] Non-specific binding was assessed in the presence of excess (10 μM) (E)-N1-(2-nethoxybenzyl)-cinnamidine.
Test compounds were solubilized at 10 mM in DMSO. Then the dilutions were performed with a constant solvent concentration (1% DMSO) in the assay. After incubation for 4.5 hours at room temperature, the assays were filtered on GF/3 filters pretreated with 0.3% (v/v) polyethylenimine (PEI) with a Packard system. The experiment was performed in duplicate (n=2).

human NR1/NR2B = human NR1/NR2B (Homo sapiens (Human), UniProt Q05586+Q13224); assay: NR2B antagonist activity: calcium influx (Fluo-4) assay in HEK293 cells; assay type: cell-based
Chain of human NR1/NR2B (Q13224 27-1484, other chains not shown): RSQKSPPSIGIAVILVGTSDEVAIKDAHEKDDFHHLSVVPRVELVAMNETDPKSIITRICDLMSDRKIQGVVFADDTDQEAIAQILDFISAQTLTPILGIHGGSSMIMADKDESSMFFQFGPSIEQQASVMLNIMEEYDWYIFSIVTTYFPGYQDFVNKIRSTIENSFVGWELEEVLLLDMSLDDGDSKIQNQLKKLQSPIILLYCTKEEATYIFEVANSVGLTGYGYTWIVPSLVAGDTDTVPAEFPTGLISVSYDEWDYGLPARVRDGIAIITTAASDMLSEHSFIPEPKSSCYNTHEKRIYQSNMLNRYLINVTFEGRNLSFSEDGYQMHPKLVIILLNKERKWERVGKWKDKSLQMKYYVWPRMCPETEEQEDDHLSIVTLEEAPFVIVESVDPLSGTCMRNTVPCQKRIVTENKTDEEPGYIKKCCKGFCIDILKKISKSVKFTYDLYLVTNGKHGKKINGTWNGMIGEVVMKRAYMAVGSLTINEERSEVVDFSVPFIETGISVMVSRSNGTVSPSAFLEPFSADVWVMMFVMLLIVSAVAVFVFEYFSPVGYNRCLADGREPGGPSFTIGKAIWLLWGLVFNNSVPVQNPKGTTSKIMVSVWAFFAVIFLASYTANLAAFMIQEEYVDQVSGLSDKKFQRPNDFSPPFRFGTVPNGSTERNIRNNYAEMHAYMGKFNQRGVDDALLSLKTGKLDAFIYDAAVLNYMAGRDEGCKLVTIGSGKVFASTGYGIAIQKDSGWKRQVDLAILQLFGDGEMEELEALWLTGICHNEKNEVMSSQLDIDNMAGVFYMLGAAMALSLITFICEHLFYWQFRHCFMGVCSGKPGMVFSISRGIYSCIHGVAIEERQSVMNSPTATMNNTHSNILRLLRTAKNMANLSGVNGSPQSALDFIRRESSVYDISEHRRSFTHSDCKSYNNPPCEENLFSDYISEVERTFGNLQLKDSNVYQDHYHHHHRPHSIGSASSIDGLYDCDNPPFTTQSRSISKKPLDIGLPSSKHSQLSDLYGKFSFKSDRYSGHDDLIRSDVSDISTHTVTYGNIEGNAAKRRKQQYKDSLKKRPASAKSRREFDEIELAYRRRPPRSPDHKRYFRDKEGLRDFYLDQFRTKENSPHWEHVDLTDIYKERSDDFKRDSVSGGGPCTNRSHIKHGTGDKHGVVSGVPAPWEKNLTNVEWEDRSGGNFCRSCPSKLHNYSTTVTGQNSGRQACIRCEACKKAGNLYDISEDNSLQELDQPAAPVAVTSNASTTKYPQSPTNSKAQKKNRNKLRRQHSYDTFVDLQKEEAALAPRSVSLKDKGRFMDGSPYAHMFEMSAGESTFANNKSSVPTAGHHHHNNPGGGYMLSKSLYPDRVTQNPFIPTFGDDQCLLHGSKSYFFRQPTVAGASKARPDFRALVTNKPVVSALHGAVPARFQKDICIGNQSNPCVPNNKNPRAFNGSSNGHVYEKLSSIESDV
Protocol: Activation of the NR2A or NR2B subtype of NMDA receptor with glutamate as an agonist and glycine co-agonist on these cells results in calcium influx, which can be monitored with fluorescent indicator Fluo-4.
For experiments, the cells were seeded onto poly-D-lysine-coated 96-well black plates with clear bottom (Corning) at a density of ˜50,000 cells/well. After overnight culture, the growth medium was removed from the wells and the cells were incubated at 37° C. for 60 minutes in Hanks buffer containing 4 μM fluo-4-AM (Invitrogen) and 0.1% bovine serum albumin (BSA). After dye-loading, the cells were washed three times with Hanks buffer and incubated for 10 minutes at room temperature with various concentrations of test compounds prepared in Hanks buffer with 0.1% BSA. The cell plates were placed onto an FDSS Cell fluorescence reader (Hamamatsu). After 20 seconds of reading background fluorescence, agonist glutamate at final 100 µM and co-agonist glycine at final 50 μM were added to the cells to activate the receptor, and the resulting fluorescence changes were recorded and quantified. Based on the changes in fluorescence intensity, the pharmacological effect of test compounds was analyzed and the IC50 values derived from a non-linear least squares fitting of the concentration-dependent response to a standard logistic equation using Prism (Graphpad Software, Inc.): Amplitude=Max Amplitude/(1+(IC50/[antagonist])^n).

[2] = system: wild type mice (male NMRI); assay: Marble Burying Test in wild type mice; assay type: in vivo, mouse; settings: for change in vivo at 3 mg/kg / change in vivo at 10 mg/kg / change in vivo at 30 mg/kg: Mus musculus, ip, read-out: Percent Change in marbles buried relative to vehicle
Protocol: Animals. Male NMRI mice (20-30 g body weight) were obtained from Janvier Labs (Le Genest-Saint Isle, France) and allowed to acclimate to the animal facility for at least 5 days. Twelve mice were studied per treatment group.
Compound formulation. The test compounds were prepared in a vehicle of 0.5% DMSO and 4% HP-β-CD, and administered orally (PO) or IP. The test compounds or vehicle were administered 20 minutes before the behavioral test described below. Clobazam (8 mg/kg IP), administered 30 minutes before the test, was used as the positive reference compound.
Clobazam was dispersed in 0.2% hydroxypropylmethylcellulose (HPMC) in physiological saline. Dosing volume was 10 mL/kg.
Testing procedure. The Marble Burying Test was conducted as previously described by Broekkamp et al. (Eur. J. Pharmacol. 1986, 126:223-229). Mice exposed to small novel objects (marbles) will bury them in the sawdust floor covering. Anxiolytics decrease the number of marbles buried at non-sedating doses. Mice were individually placed in transparent plastic cages (33×21×18 cm) with 5 cm of sawdust on the floor and 25 marbles grouped in the center of the cage. The cage was covered with an inverted plastic cage. Each test cage, together with the marbles, was impregnated with mouse odor before-hand by leaving 10 mice in the cage for 15 minutes. These mice then played no further role in the experiment. The number of marbles covered by sawdust (⅔ or more) was counted at the end of the 30-minute test. The test was performed blind (compounds versus vehicle).
Statistical analyses. Data were analyzed by comparing test compound-treated groups with the vehicle control group using the Kruskal-Wallis test followed by post-hoc Mann-Whitney U tests. Data comparing the reference compound with the vehicle were analyzed using the Mann-Whitney U test. A p value<0.05 was considered significant.

hERG channel = hERG channel (Homo sapiens (Human), UniProt Q12809); assay: hERG channel inhibition, whole cell patch clamp in HEK293 cells; assay type: cell-based; settings: Table 1.3A
Chain of hERG channel (Q12809 whole entry): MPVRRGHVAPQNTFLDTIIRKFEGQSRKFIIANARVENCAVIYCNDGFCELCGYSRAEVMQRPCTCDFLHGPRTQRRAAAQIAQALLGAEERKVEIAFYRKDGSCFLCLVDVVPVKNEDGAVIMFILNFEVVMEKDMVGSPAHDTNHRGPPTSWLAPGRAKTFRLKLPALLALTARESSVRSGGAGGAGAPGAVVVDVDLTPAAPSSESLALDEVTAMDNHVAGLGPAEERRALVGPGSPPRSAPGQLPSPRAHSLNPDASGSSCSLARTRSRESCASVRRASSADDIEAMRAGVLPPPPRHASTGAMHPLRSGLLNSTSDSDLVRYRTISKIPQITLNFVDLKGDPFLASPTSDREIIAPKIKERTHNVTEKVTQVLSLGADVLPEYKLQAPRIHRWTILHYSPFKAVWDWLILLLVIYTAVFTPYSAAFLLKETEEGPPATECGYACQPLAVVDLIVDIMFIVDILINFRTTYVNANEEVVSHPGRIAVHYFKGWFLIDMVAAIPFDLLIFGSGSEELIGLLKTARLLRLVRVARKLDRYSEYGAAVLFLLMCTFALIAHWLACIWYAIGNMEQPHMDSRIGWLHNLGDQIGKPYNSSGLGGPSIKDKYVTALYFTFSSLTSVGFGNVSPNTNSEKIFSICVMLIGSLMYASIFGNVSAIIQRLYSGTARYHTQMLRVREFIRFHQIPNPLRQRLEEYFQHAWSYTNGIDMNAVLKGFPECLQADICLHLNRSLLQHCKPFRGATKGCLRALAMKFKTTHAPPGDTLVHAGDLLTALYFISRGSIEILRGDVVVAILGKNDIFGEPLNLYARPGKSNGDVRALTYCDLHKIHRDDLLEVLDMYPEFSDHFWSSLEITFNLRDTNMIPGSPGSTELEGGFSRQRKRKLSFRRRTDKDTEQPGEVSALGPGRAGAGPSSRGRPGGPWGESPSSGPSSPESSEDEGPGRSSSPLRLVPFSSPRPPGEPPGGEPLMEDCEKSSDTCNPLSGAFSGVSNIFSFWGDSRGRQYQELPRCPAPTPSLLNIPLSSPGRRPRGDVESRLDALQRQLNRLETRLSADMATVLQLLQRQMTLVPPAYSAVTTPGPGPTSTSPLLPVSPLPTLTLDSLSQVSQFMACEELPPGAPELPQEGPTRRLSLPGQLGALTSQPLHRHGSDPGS

[3] = system: wild type mice (male C57Bl/6); assay: Novelty Phobia Test in wild type mice; assay type: in vivo, mouse; settings: for Percent Change in Novel Object Number of Nose Touches relative to vehicle control: pre-test time 10 min; for pattern of the dose-response function for bouts of nose touching: mouse, in vivo
Protocol: Animals. Male C57Bl/6 mice (18-30 g body weight; 6-8 weeks of age) were obtained from Slaccas (Shanghai, China) and allowed to acclimate to the animal facility for 7 days. Mice were group housed in plastic cages (no more than 4 animals per cage) on wood shavings with nesting material. All animals had free access to food (M01-F, Slaccas) and water. The animal facility was maintained under artificial lighting between 7:00 AM and 7:00 PM in a controlled ambient temperature of 22-24° C. and relative humidity between 50-60%.
Compound formulation. The test compounds were prepared in a vehicle of DMSO and HP-β-CD, and administered IP or PO. The test compounds or vehicle were administered at various times (10-20 minutes) before the behavioral test described below. Dosing volume was 10 mL/kg.
Testing procedure. The behavioral testing apparatus was a rectangular black Plexiglas, 2-chambered box, with no top or bottom (50 cm long, 26 cm wide and 15 cm tall) and allowed for the simultaneous testing of 2 mice. The box was placed on a laboratory bench. The chambers of the testing box were cleaned and fresh paper chip bedding was added between tests. Mice were brought to the experiment room in their home cages on the day of testing. Behavioral tests were conducted between 10:00 AM and 1:00 PM in dim light. After drug administration, a mouse was placed into a test chamber and allowed to explore for 10 minutes. After this habituation period, a novel object (e.g., a toy ball of 3 cm in diameter with spikes) was introduced to the center of the chamber for 5 minutes. For the entire 15-minute test period, video was recorded for offline analysis with Any-maze Video Tracking software (Stoelting Co., Wood Dale, Ill.). The total distance traveled during the entire 15 minutes and the number of bouts that each mouse touched the novel object during the last 5 minutes were measured.
Statistical analyses. Data are presented as means and SEMs. Data were analyzed using one-way analysis of variance (ANOVA; Prism, GraphPad Software Inc., San Diego, Calif.), followed by the post-hoc Dunnett's test to compare test compound-treated groups with the vehicle control. A p value<0.05 was considered significant.

[4] = read-out: hNR2B IC50, Table 1.3A
[5] = Table 1.1A, read-out: NR2B IC50
[6] = Table 1.3A, read-out: hNR2B IC50
[7] = rat brain NR2B receptors, mean of replicates, read-out: Arithmetic Mean Ki

Chain of native rat brain NR2B receptors (Q00960 27-1482, other chains not shown): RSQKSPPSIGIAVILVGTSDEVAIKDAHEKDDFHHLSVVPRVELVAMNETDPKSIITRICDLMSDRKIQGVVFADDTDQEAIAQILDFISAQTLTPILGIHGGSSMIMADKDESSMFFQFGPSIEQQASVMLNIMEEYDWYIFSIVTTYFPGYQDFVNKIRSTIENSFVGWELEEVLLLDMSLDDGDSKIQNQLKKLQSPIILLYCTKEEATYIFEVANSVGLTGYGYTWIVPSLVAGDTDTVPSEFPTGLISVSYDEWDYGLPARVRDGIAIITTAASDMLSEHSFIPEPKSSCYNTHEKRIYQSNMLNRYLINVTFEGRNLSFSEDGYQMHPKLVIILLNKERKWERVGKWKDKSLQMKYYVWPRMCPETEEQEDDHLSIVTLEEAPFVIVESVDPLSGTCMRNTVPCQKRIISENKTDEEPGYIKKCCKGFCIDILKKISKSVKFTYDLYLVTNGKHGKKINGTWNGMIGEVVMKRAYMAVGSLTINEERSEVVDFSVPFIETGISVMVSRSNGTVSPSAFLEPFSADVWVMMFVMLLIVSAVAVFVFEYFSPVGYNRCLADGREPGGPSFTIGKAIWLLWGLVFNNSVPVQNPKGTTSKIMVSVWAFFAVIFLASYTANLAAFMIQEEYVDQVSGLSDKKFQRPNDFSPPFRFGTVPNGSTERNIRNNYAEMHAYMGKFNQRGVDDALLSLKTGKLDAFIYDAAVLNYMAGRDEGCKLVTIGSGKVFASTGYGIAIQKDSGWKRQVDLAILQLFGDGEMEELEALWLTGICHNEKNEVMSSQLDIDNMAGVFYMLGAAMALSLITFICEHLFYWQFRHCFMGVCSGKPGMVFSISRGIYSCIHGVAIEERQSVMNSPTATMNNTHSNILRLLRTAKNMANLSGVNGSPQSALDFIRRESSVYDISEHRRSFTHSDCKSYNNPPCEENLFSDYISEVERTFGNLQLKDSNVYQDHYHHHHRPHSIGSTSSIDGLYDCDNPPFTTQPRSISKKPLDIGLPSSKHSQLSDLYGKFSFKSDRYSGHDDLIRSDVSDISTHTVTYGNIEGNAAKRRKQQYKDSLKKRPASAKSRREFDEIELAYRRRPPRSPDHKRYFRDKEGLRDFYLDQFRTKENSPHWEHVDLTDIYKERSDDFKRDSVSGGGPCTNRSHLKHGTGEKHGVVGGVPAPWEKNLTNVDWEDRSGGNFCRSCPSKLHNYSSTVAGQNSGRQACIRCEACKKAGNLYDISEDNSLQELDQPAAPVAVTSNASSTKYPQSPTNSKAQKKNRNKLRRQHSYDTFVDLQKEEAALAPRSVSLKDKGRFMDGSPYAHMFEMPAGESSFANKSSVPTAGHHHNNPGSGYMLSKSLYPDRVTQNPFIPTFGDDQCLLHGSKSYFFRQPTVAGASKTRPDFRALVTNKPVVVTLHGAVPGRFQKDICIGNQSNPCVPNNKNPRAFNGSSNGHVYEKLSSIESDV

COc1ccccc1CNC(=N)/C=C/c1ccccc1 [(E)-N1-(2-methoxybenzyl)-cinnamidine, reference compound]
Ki ([1]; high affinity site, rat brain membranes, read-out: inhibition constant (Ki), mean): 0.00022 µM

Fc1ccc(C(F)(F)CN2CCC(Nc3ncnc4[nH]ccc34)CC2)nc1 [C-2^A′]
IC50 (human NR1/NR2B): 0.124 µM

Cc1ccc(C(F)(F)CN2CCC(Nc3ncnc4[nH]ccc34)CC2)nc1 [C-4^A′]
IC50 (human NR1/NR2B): 0.035 µM | IC50 (human NR1/NR2B; [4]): 0.035 µM

FC(F)c1ccc(C(F)(F)CN2CCC(Nc3ncnc4[nH]ccc34)CC2)nc1 [C-6^A′]
IC50 (human NR1/NR2B; [5]): 0.031 µM | IC50 (human NR1/NR2B; [6]): 0.031 µM | change in vivo at 3 mg/kg [2]: -23% | change in vivo at 10 mg/kg [2]: -62% | change in vivo at 30 mg/kg [2]: -100% | IC50 (hERG channel): 6.9 µM

FCc1ccc(C(F)(F)CN2CCC(Nc3ncnc4[nH]ccc34)CC2)nc1 [C-7^A′]
IC50 (human NR1/NR2B): 0.014 µM

FC(F)Oc1ccc(C(F)(F)CN2CCC(Nc3ncnc4[nH]ccc34)CC2)nc1 [C-12^A′]
bouts of nose touching of the novel object, efficacy ([3]; IP (C-11 also PO)): not efficacious | change in vivo at 3 mg/kg [2]: -14% | change in vivo at 10 mg/kg [2]: -56% | change in vivo at 30 mg/kg [2]: -100%

Fc1cc(Cl)cnc1C(F)(F)CN1CCC(Nc2ncnc3[nH]ccc23)CC1 [C-16^A′]
IC50 (human NR1/NR2B): 0.047 µM | IC50 (human NR1/NR2B; [4]): 0.047 µM | IC50 (hERG channel): 60 µM

Cc1cnc(C(F)(F)CN2CCC(Nc3ncnc4[nH]ccc34)CC2)c(F)c1 [C-17^A′]
IC50 (human NR1/NR2B): 0.044 µM

Fc1cc(C(F)(F)F)cnc1C(F)(F)CN1CCC(Nc2ncnc3[nH]ccc23)CC1 [C-18^A′]
IC50 (human NR1/NR2B; [5]): 0.084 µM

Cc1ccc(C(F)(F)CN2CCC(N(C)c3ncnc4[nH]ccc34)CC2)nc1 [C-47^A′]
IC50 (human NR1/NR2B; [5]): 0.14 µM

Cc1ccc(C(F)(F)CN2CCC(Nc3ncnc4[nH]ccc34)CC2)cn1 [C-128^A′]
IC50 (human NR1/NR2B): 0.089 µM | IC50 (human NR1/NR2B; [4]): 0.089 µM

Fc1ccc(C(F)(F)CN2CCC(Nc3ncnc4[nH]ccc34)CC2)cc1 [C-175^A′]
Percent Change in Novel Object Number of Nose Touches relative to vehicle control ([3]; IP, 3 mg/kg): 25.1% | Percent Change in Novel Object Number of Nose Touches relative to vehicle control ([3]; IP, 10 mg/kg): 139% | Percent Change in Novel Object Number of Nose Touches relative to vehicle control ([3]; IP, 30 mg/kg): −88.1% | pattern of the dose-response function for bouts of nose touching [3]: inverted U-shaped dose-response function | IC50 (human NR1/NR2B): 0.022 µM | IC50 (human NR1/NR2B; read-out: NR2B IC50, Table 1.4A): 0.022 µM | IC50 (human NR1/NR2B; [4]): 0.022 µM

FC(F)(CN1CCC(Nc2ncnc3[nH]ccc23)CC1)c1ccc(Cl)cc1 [C-176^A′]
IC50 (human NR1/NR2B): 0.026 µM

Cc1ccc(C(F)(F)CN2CCC(Nc3ncnc4[nH]ccc34)CC2)cc1 [C-177^A′]
IC50 (human NR1/NR2B): 0.027 µM

FC(F)(F)c1ccc(C(F)(F)CN2CCC(Nc3ncnc4[nH]ccc34)CC2)cc1 [C-178^A′]
change in vivo at 0.3 mg/kg ([3]; Mus musculus, ip, 20 min, IP, 0.3 mg/kg, pre-test time 20 min, read-out: Percent Change in Novel Object Number of Nose Touches relative to vehicle control): -4.12% | change in vivo at 1 mg/kg ([3]; Mus musculus, ip, 20 min, IP, 1 mg/kg, pre-test time 20 min, read-out: Percent Change in Novel Object Number of Nose Touches relative to vehicle control): 50.3% | change in vivo at 3 mg/kg ([3]; Mus musculus, ip, 20 min, IP, 3 mg/kg, pre-test time 20 min, read-out: Percent Change in Novel Object Number of Nose Touches relative to vehicle control): 110% | pattern of the dose-response function for bouts of nose touching [3]: dose-dependent increases | IC50 (human NR1/NR2B; [5]): 0.064 µM | IC50 (human NR1/NR2B; [6]): 0.064 µM | IC50 (human NR1/NR2B; Table 1.4A, read-out: NR2B IC50): 0.064 µM | IC50 (hERG channel): 1.6 µM

Cc1cnc(C(F)(F)CN2CCC(Nc3ncnc4[nH]ccc34)CC2)cn1 [C-230^A′]
IC50 (human NR1/NR2B): 0.088 µM | IC50 (human NR1/NR2B; [4]): 0.088 µM

Cc1ccc(COC(=O)N2CC[C@H](CNc3cnc(C#N)cn3)C(F)(F)C2)cc1 [E1-21.30^B′, (R)-4-methylbenzyl 4-(((5-cyanopyrazin-2-yl)amino)methyl)-3,3-difluoropiperidine-1-carboxylate]
Ki [1, 7]: 0.031 µM

Cc1cnc(NC[C@H]2CCN(C(=O)OCc3ccc(Cl)cc3)CC2(F)F)cn1 [E1-21.33^B′, (R)-4-chlorobenzyl 3,3-difluoro-4-(((5-methylpyrazin-2-yl)amino)methyl)piperidine-1-carboxylate mesylate]
Ki [1, 7]: 0.011 µM

Cc1cnc(NC[C@H]2CCN(C(=O)OCc3ccc(F)cc3)CC2(F)F)cn1 [E1-21.34^B′, (R)-4-fluorobenzyl 3,3-difluoro-4-(((5-methylpyrazin-2-yl)amino)methyl)piperidine-1-carboxylate mesylate]
Ki [1, 7]: 0.016 µM

CN1C(=O)CC(=O)N(c2ccccc2)c2cc(Cl)ccc21 [clobazam, Clobazam, reference compound]
number of buried marbles, positive reference ([2]; 8 mg/kg IP, 30 minutes before the test, data not shown): significantly reduced the number of buried marbles

Source: patent US11752155B2, “Treatment of autism spectrum disorders, obsessive-compulsive disorder and anxiety disorders” (Rugen Holdings (Cayman) Limited, priority 2016, dated 2023)
